Experimental data reported in paper PMC10525516, “Novel NADPH Oxidase-2 Inhibitors as Potential Anti-Inflammatory and Neuroprotective Agents” (Antioxidants, 2023).
Like-named read-outs stand apart in the source and are kept apart here.

Columns and labels:
Nox2 = target: T1, Nox2 (Homo sapiens, UniProt P04839); assay: Seahorse XFe96 oxygen consumption in dHL60 cells before and after PMA; assay type: cell-based
T1 construct: endogenous in cells
T1 sequence (P04839 2-570 limits assumed): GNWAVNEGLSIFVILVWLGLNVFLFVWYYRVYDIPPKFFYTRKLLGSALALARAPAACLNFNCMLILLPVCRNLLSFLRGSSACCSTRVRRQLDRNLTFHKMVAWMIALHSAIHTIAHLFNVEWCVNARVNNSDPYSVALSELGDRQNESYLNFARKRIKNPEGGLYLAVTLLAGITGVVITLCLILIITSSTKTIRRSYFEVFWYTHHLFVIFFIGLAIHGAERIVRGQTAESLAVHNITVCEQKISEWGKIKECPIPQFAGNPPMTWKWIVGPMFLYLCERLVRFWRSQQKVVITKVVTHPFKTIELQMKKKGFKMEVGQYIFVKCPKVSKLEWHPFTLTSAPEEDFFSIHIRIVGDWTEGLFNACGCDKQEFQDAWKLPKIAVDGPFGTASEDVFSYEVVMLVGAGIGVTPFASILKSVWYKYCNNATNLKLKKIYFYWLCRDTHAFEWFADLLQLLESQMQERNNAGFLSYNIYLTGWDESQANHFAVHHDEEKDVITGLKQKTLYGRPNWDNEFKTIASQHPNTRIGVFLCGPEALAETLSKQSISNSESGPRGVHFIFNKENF
T1 sequence (P13498 2-195 partner limits assumed): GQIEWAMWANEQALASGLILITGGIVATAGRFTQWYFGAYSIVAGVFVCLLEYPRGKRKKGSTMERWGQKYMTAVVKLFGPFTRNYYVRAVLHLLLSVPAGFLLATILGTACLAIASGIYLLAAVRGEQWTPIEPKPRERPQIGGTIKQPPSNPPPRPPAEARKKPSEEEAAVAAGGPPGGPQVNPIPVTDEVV
Description: Oxygen consumption in dHL60 cells was monitored before and after the sequential addition of the candidate Nox inhibitors and PMA using a Seahorse XFe96 extracellular flux analyzer (Agilent Technologies, Santa Clara, CA, USA). The cell suspension was prepared in phenol red-free RPMI medium (without bicarbonate) and aliquoted (80 µL/well) into a 96-well plate to obtain a final cell number of 2 × 10^4 cells/well. Cells were spun down and an additional amount of RPMI medium (100 µL/well) was added gently so as not to disturb the cells at the bottom of the wells. The solutions for injections were prepared 10× concentrated, loaded into the injection ports of the Seahorse XFe96 cartridge, and the volumes injected were 20 µL and 22.2 µL for the compounds tested and PMA, respectively. The oxygen consumption rates were monitored for 30 min before injection (baseline respiration rate), 60 min after injection of different concentrations of the candidate Nox inhibitors, and 2 h after injection of PMA (final concentration: 1 µM). Increases in OCR values after PMA injection were used as a measure of Nox2 activity.

[1] = Plasma and brain pharmacokinetics in C57BL/6 mice; assay type: in vivo; settings: male, C57BL/6, mouse, ip, C57BL6 mice, single dose 20 mg/kg i.p.
Description: TG15-132 at a 20 mg/kg dose in a vehicle formulation of 10% DMSO, 50% PEG400, and 40% reversed osmosis-purified water (v/v) was administered to healthy male C57BL/6 mice weighing an average of 27 g by intraperitoneal (i.p.) injection. Blood samples (approximately 60 μL) were collected from the retro-orbital plexus of three animals at times 0.08, 0.25, 0.5, 1, 2, 4, 8, and 24 h after compound administration. Along with the terminal blood samples, the brain samples were also collected at the time points 0.25, 0.5, 2.0, 4.0, 8.0, and 24 h.
Blood samples were collected into labeled microtubes containing dipotassium EDTA solution (20%) as an anticoagulant. Plasma was immediately harvested from the blood by centrifugation at 4000 rpm for 10 min at 4 ± 2 °C and stored below −70 °C until bioanalysis. After isolation, brain tissue samples were rinsed three times in ice cold normal saline (for 5–10 s/rinse using ~5–10 mL normal saline in disposable petri dishes for each rinse) and dried on blotting paper. Tissue samples were homogenized using ice-cold phosphate-buffered saline (pH 7.4). The total homogenate volume (µL) was three times the tissue weight (mg). All homogenates were stored below −70 ± 10 °C until bioanalysis. Concentrations of TG15-132 in plasma and brain samples were determined by fit-for-purpose liquid chromatography with the tandem mass spectrometry method (Sai-Life, Hyderabad, India). Phoenix WinNonlin (version 8.0, Certara, Princeton, NJ, USA) was used to analyze the pharmacokinetic parameters.

basal respiration (OCR) (Nox2; 1 h after compound injection, before PMA, concentrations that inhibit PMA-induced OCR): no inhibition of basal respiration
half-life ([1]; brain, read-out: brain half-life (converted)): 2.7 h
Kp ([1]; brain, read-out: brain-to-plasma ratio): > 6
half-life ([1]; plasma, read-out: plasma half-life (converted)): 2.7 h
Compound: CN(C)CCCn1c(SCCc2c[nH]c3ccccc23)nc2ccc(F)cc2c1=O [TG15-132]
PMA-induced OCR (Nox2; PMA 1 µM after 1 h compound): significant inhibition of PMA-induced OCR
